As a reminder, the IC50 is the concentration needed to halve the response being measured.

Each structure is given as a SMILES string.

Our source for the IC50 values is patent US20230181536A1, “ANTICANCER COMBINATION THERAPY WITH N-(1-ACRYLOYL-AZETIDIN-3-YL)-2-((1H-INDAZOL-3-YL)AMINO)METHYL)-1H-IMIDAZOLE-5-CARBOXAMIDE INHIBITOR OF KRAS-G12C” (TAIHO PHARMACEUTICAL CO., LTD., priority 2020, published 2023).

T1 sequence (P01116 1-169 isoform P01116-2 G12C): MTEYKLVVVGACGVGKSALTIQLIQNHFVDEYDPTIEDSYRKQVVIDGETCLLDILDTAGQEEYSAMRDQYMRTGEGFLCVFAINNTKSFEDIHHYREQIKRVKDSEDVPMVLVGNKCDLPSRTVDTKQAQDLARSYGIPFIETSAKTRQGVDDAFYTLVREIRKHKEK

The experiment concerns the target T1, KRAS G12C (Homo sapiens, UniProt P01116, G12C).
T1 construct: KRAS G12C (amino acid region: 1-169)
The experiment can be described thus: Inhibitory activity on the KRAS G12C nucleotide (GDP-GTP) exchange reaction. The format is biochemical. Particulars: Bodipy FL GDP-bound KRAS G12C 25 nM; preincubation at 25° C. for 4 hours; SOS1 100 nM, GppNHp 1 μM, reaction for 30 minutes. In a few lines: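 Bodipy FL-GDP-loaded KRAS G12C (aa 1-169, 25 nM) preincubated with compound 4 h at 25 °C in pH 7.5 Tris buffer, 5% DMSO; exchange started with SOS1 (aa 564-1049, 100 nM) and 1 μM GppNHp for 30 min. Fluorescence change (ex 485/em 520 nm) normalized to DMSO and no-GppNHp controls; IC50 calculated.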
The compound `COC/C=C/C(=O)N1CC(NC(=O)c2c(C)nc(CNc3n[nH]c4cc(Cl)c(C(C)(C)C)cc34)n2C(C)C)C1` [Example 85, (E)-2-(((5-(tert-butyl)-6-chloro-1H-indazol-3-yl)amino)methyl)-1-isopropyl-N-(1-(4-methoxybut-2-enoyl)azetidin-3-yl)-4-methyl-1H-imidazole-5-carboxamide] registered a 50% inhibitory concentration (IC50) of 196 nM. On to `C=CC(=O)N1CC(NC(=O)c2c(Cl)nc(CNc3n[nH]c4cc(Cl)c(C(C)(C)C)cc34)n2[C@H]2CCN(C(C)C)C2)C1` [Example 116, (S)-N-(1-acryloylazetidin-3-yl)-2-(((5-(tert-butyl)-6-chloro-1H-indazol-3-yl)amino)methyl)-4-chloro-1-(1-isopropylpyrrolidin-3-yl)-1H-imidazole-5-carboxamide], for which the 50% inhibitory concentration (IC50) came to 8 nM. Consider `C=CC(=O)N1C[C@H](NC(=O)c2c(C)nc(CNc3n[nH]c4cc(Cl)c(C(C)(C)C)cc34)n2C)C2(CC2)C1` [Example 54, (R)-N-(5-acryloyl-5-azaspiro[2.4]heptan-7-yl)-2-(((5-(tert-butyl)-6-chloro-1H-indazol-3-yl)amino)methyl)-1,4-dimethyl-1H-imidazole-5-carboxamide], for which 301 nM corresponded to half-maximal inhibition (IC50). The result for `C=CC(=O)N1CC(NC(=O)c2c(Cl)nc(CNc3n[nH]c4cc(Cl)c(C(C)(C)C)cc34)n2C(C)C)C1` [Example 35, N-(1-acryloylazetidin-3-yl)-2-(((5-(tert-butyl)-6-chloro-1H-indazol-3-yl)amino)methyl)-4-chloro-1-isopropyl-1H-imidazole-5-carboxamide] reads 8 nM; that for `C=CC(=O)NC1CN(C(=O)c2c(C)nc(CNc3n[nH]c4cc(Cl)c(C(C)(C)C)cc34)n2C)C1` [Example 46, N-(1-(2-(((5-(tert-butyl)-6-chloro-1H-indazol-3-yl)amino)methyl)-1,4-dimethyl-1H-imidazole-5-carbonyl)azetidin-3-yl) acrylamide], 92 nM; that for `C=CC(=O)N1CC(NC(=O)c2c(C(F)F)nc(CNc3n[nH]c4cc(Cl)c(C(C)(C)C)cc34)n2C2CCN(CC)C2)C1` (stereo not shown) [Example 92, N-(1-acryloylazetidin-3-yl)-2-(((5-(tert-butyl)-6-chloro-1H-indazol-3-yl)amino)methyl)-4-(difluoromethyl)-1-(1-ethylpyrrolidin-3-yl)-1H-imidazole-5-carboxamide], 10 nM. The result for `CC(C)n1c(CNc2n[nH]c3cc(Cl)c(C(C)(C)C)cc23)nc(C(F)F)c1C(=O)NC1CN(C(=O)/C=C/CN(C)C)C1` [Example 84, (E)-2-(((5-(tert-butyl)-6-chloro-1H-indazol-3-yl)amino)methyl)-4-(difluoromethyl)-N-(1-(4-(dimethylamino)but-2-enoyl)azetidin-3-yl)-1-isopropyl-1H-imidazole-5-carboxamide] reads 63 nM. Next, `C=CC(=O)N1CC(NC(=O)c2c(Br)nc(CNc3n[nH]c4cc(Cl)c(C(C)(C)C)cc34)n2C)C1` [Example 27, N-(1-acryloylazetidin-3-yl)-4-bromo-2-(((5-(tert-butyl)-6-chloro-1H-indazol-3-yl)amino)methyl)-1-methyl-1H-imidazole-5-carboxamide]: 8 nM. The compound `C=CC(=O)N1CC(NC(=O)c2c(C)nc(CNc3n[nH]c4cc(Cl)c(C(C)(C)C)cc34)n2CC)C1` [Example 12, N-(1-acryloylazetidin-3-yl)-2-(((5-(tert-butyl)-6-chloro-1H-indazol-3-yl)amino)methyl)-1-ethyl-4-methyl-1H-imidazole-5-carboxamide] yielded a half-maximal inhibitory concentration (IC50) of 16 nM. Next, `C=CC(=O)N1CC(NC(=O)c2c(F)nc(CNc3n[nH]c4cc(Cl)c(C(C)(C)C)cc34)n2C(C)C)C1` [Example 34, N-(1-acryloylazetidin-3-yl)-2-(((5-(tert-butyl)-6-chloro-1H-indazol-3-yl)amino)methyl)-4-fluoro-1-isopropyl-1H-imidazole-5-carboxamide]: 13 nM. The result for `C=CC(=O)N1CC(NC(=O)c2csc(CNc3n[nH]c4cc(Cl)c(C(C)(C)C)cc34)n2)C1` [Example 7, N-(1-acryloylazetidin-3-yl)-2-(((5-(tert-butyl)-6-chloro-1H-indazol-3-yl)amino)methyl)thiazole-4-carboxamide] reads 4260 nM; that for `C=CC(=O)N1C[C@H](NC(=O)c2c(C(F)F)nc(CNc3n[nH]c4cc(Cl)c(C(C)(C)C)cc34)n2C)[C@@H](F)C1` [Example 70, N-((3S,4S)-1-acryloyl-4-fluoropyrrolidin-3-yl)-2-(((5-(tert-butyl)-6-chloro-1H-indazol-3-yl)amino)methyl)-4-(difluoromethyl)-1-methyl-1H-imidazole-5-carboxamide], 79 nM; that for `C=CC(=O)N1CC(N(C)C(=O)c2c(C)nc(CNc3n[nH]c4cc(Cl)c(C(C)(C)C)cc34)n2C)C1` [Example 49, N-(1-acryloylazetidin-3-yl)-2-(((5-(tert-butyl)-6-chloro-1H-indazol-3-yl)amino)methyl)-N,1,4-trimethyl-1H-imidazole-5-carboxamide], 208 nM. The compound `C=CC(=O)N1CC(NC(=O)c2c(Cl)nc(CNc3n[nH]c4cc(Cl)c(C(C)(C)C)cc34)n2C2CCN(C)CC2)C1` [Example 103, N-(1-acryloylazetidin-3-yl)-2-(((5-(tert-butyl)-6-chloro-1H-indazol-3-yl)amino)methyl)-4-chloro-1-(1-methylpiperidin-4-yl)-1H-imidazole-5-carboxamide] yielded a half-inhibitory concentration (IC50) of 5 nM.

`C=CC(=O)N1CC(NC(=O)c2oc(CNc3n[nH]c4cc(Cl)c(C(C)(C)C)cc34)nc2C)C1` [Example 11, N-(1-acryloylazetidin-3-yl)-2-(((5-(tert-butyl)-6-chloro-1H-indazol-3-yl)amino)methyl)-4-methyloxazole-5-carboxamide] returned an IC50 of 1060 nM.

On to `C=CC(=O)N1CCN(C(=O)c2c(C)nc(CNc3n[nH]c4cc(Cl)c(C(C)(C)C)cc34)n2C)CC1` [Example 50, 1-(4-(2-(((5-(Tert-butyl)-6-chloro-1H-indazol-3-yl)amino)methyl)-1,4-dimethyl-1H-imidazole-5-carbonyl)piperazin-1-yl)prop-2-en-1-one], for which the 50% inhibitory concentration (IC50) came out at 4280 nM. The result for `C=CC(=O)N1CC(NC(=O)c2c(Cl)nc(CNc3n[nH]c4cc(Cl)c(C(C)(C)C)cc34)n2[C@@H]2C[C@@H](C)N(CC(F)F)C2)C1` [Example 126, N-(1-acryloylazetidin-3-yl)-2-(((5-(tert-butyl)-6-chloro-1H-indazol-3-yl)amino)methyl)-4-chloro-1-((3R,5R)-1-(2,2-difluoroethyl)-5-methylpyrrolidin-3-yl)-1H-imidazole-5-carboxamide] reads 4 nM; that for `C=CC(=O)N1C[C@H](NC(=O)c2c(C)nc(CNc3n[nH]c4cc(Cl)c(C(C)(C)C)cc34)n2C)[C@H](OC)C1` [Example 61, N-((3S,4R)-1-acryloyl-4-methoxypyrrolidin-3-yl)-2-(((5-(tert-butyl)-6-chloro-1H-indazol-3-yl)amino)methyl)-1,4-dimethyl-1H-imidazole-5-carboxamide], 210 nM.

For the compound `C=CC(=O)N1CC(NC(=O)c2c(Cl)nc(CNc3n[nH]c4cc(Cl)c(C(C)(C)C)cc34)n2C2CCOCC2)C1` [Example 101, N-(1-acryloylazetidin-3-yl)-2-(((5-(tert-butyl)-6-chloro-1H-indazol-3-yl)amino)methyl)-4-chloro-1-(tetrahydro-2H-pyran-4-yl)-1H-imidazole-5-carboxamide], inhibition was half-maximal at 7 nM (IC50).
